Measured values taken from ChEMBL document CHEMBL1201862, “PubChem BioAssay data set” (2004).
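These data come from cells grown in 96-well plates and exposed to compound for 48 hours at five concentrations. Abbreviation: GI50, concentration required for 50% inhibition of growth.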 The source made the active and inactive calls. No stated cut-off is given here; in the data, active = GI50 up to about 1.1 µM and inactive = higher.

Tests used:
Assay in all cases: growth of human tumour cells (NCI), 48 h
[1] = test system: DLD-1
[2] = test system: DMS-114
[3] = test system: DMS-273
[4] = test system: HOP-18
[5] = test system: KM-20L2
[6] = test system: M19-MEL
[7] = test system: RXF 631
[8] = test system: SNB-78
[9] = test system: XF498

Measured: GI50

N/C(=N\O)N/N=C/c1ccc(O)c(O)c1
inactive: [1] > 100 µM | [2] > 100 µM | [3] 34.5 µM | [4] > 100 µM | [5] > 100 µM | [6] > 100 µM | [7] > 100 µM | [8] > 100 µM | [9] > 100 µM
